Test results taken from patent publication US8410144B2, “Substituted indolo-pyridinone compounds” (ArQule, Inc., priority 2009, dated 2013).

How the values were obtained:
MDA-MB-231 = test: MTS assay, MDA-MB-231 cells; assay type: cell-based; conditions: Homo sapiens, 72 hours, read-out: MDA-MB-231, MTS cell kill % inhibition
Protocol: (§1) Cells were maintained at 37° C., 5% CO2 in DMEM media supplemented with 1% fetal bovine serum, penicillin/streptomycin and fungizone (Invitrogen). Cells were seeded into 96-well tissue culture plates at 3000 per well and cultured at 37° C. for 18 hours. Test compounds were dissolved and diluted to 300× in DMSO then diluted 1:40 in DMEM. Cells were incubated with test compounds for 72 hours followed by incubation with tetrazolium compound (3-(4,5-dimethylthiazol-2-yl)-5-(3-carboxymethoxyphenyl)-2-(4-sulfophenyl)-2H-tetrazolium, inner salt; MTS) and the electron coupling reagent, phenazine methosulfate (PMS) for 4 hours. […] The ability of compounds to inhibit cell growth in this assay is correlated with the reduction of dehydrogenase enzyme activity found in metabolically active cells. The measurement of the absorbance of the formazan was assessed using an ENVISION™ (Perkin Elmer) microplate reader at 492 nm. The calculated IC50 value is the concentration of the test compound that causes a 50% decrease in the absorbance.

DLD-1 = test: MTS assay, DLD-1 cells; assay type: cell-based; conditions: Homo sapiens, 72 hours, read-out: DLD-1, MTS cell kill % inhibition
Protocol: as §1

NCI-H1299 = test: MTS assay, NCI-H1299 cells; assay type: cell-based; conditions: Homo sapiens, 72 hours, read-out: NCI-H1299, MTS cell kill % inhibition
Protocol: as §1

KATO III = test: MTS assay, KATO III cells; assay type: cell-based; conditions: Homo sapiens, 72 hours, read-out: KATO III, MTS cell kill % inhibition
Protocol: as §1

IGF-1R = IGF-1R (Homo sapiens, UniProt P08069); test: IGFR1 activity assay (ELISA); assay type: biochemical; conditions: read-out: IGF-1R, PCT INH (30 μM), ELISA
Protocol: The disclosed compounds were assayed for their ability to inhibit insulin-like growth factor receptor-1 (IGFR1). Nunc Maxisorb plates were coated with streptavidin by overnight incubation with 100 μL per well of 1 μg/ml Streptavidin in DPBS. Prior to the start of the experiment, the plates were washed with TBST (3×200 μL) and blocked for at least 1 hour by adding 150 μL of 5% BSA/TBST. The plates were washed with TBST (3×200 μL/well) and left to dry immediately before the capture step.
The disclosed test articles and controls (Staurosporine) were prepared using the following assay buffer at 3× desired final concentration (50 mM Tris-HCl, 0.02 mg/ml BSA, 10 mM MgCl2, 0.1 mM Na3VO4, 1 mM EGTA, 12.5 μM ATP, 0.01% NP-40, 1 mM DTT in 10% glycerol/water). 20 μL of the test compounds (or control), 20 μL IGF1R (0.33 ng/μL final concentration), and 20 μL of Pyk-2 (0.05 ng/μL final concentration) were rapidly added to the reaction plate. The plate was incubated at room temperature for one hour.
50 μL was transferred from the reaction plate to the streptavidin coated plate. The capture plate was incubated at room temperature for 30 minutes, then washed with TBST three times. 100 μL/well of Cell Signaling anti-phospho tyrosine was added to the capture plate at a dilution of 1:3000 in 2% BSA/TBST. The plate was incubated for one hour at room temperature then washed 6× with TBST. 100 μL/well of alkaline phosphatase tagged goat anti mouse antibody was added to the capture plate at a dilution of 1:4000 in 2% BSA/TBST. The plate was incubated for one hour at room temperature then washed with TBST six times.
The fluorescent readout is initiated by the addition of 100 μL/well of Attophos reagent (6 mg/10 mL). The reading is done on the Perkin Elmer Envision system.

Chain of IGF-1R (P08069 31-1367): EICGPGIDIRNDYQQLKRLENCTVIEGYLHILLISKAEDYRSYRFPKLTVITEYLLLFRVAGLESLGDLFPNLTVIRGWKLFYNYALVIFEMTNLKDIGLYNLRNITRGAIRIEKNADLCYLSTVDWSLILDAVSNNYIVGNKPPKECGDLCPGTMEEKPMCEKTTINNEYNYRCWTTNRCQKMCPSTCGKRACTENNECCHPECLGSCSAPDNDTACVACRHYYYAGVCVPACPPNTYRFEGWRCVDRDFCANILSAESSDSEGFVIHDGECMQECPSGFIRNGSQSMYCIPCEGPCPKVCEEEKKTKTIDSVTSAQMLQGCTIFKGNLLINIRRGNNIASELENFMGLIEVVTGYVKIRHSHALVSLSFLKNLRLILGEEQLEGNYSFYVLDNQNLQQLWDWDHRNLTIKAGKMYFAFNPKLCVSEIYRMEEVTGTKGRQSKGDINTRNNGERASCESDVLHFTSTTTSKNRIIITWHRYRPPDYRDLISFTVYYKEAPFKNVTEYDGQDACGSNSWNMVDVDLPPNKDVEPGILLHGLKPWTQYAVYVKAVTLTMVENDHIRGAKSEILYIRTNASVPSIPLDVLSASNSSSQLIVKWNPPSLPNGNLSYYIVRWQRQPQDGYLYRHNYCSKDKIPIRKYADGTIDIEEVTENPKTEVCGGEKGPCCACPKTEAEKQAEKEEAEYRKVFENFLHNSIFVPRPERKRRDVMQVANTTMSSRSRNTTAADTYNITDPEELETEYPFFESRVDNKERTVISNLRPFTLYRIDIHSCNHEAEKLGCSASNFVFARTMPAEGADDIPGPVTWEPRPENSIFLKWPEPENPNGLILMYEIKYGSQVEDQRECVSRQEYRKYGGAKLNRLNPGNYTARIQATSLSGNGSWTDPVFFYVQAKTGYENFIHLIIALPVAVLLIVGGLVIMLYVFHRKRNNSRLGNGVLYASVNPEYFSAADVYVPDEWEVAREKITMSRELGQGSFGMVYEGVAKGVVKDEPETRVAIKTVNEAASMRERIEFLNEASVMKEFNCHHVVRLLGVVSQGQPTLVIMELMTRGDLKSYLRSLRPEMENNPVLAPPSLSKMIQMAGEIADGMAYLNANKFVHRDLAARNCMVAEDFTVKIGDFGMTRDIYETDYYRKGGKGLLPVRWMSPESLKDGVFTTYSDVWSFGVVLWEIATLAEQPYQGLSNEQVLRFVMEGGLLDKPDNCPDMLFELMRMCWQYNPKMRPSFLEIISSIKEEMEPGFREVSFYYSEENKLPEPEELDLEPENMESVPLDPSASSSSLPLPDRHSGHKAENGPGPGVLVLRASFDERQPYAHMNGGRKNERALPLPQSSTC

SMILES	inhibition at 30 µM (IGF-1R) [%]	inhibition at 10 µM (MDA-MB-231) [%]	inhibition at 10 µM (DLD-1) [%]	inhibition at 10 µM (NCI-H1299) [%]	inhibition at 10 µM (KATO III) [%]
CCOC(=O)N1CCN(C(=O)c2ccc3[nH]c(-c4ccc[nH]c4=O)c(-c4ccc(-c5ccccc5)cc4)c3c2)CC1 [Compound 44, ethyl 4-{[3-biphenyl-4-yl-2-(2-oxo-1,2-dihydropyridin-3-yl)-1H-indol-5-yl]carbonyl}piperazine-1-carboxylate]	50 to 79	80 to 100	50 to 79	80 to 100	80 to 100
CN(C(=O)c1ccc2[nH]c(-c3ccc[nH]c3=O)c(-c3ccccc3)c2c1)c1ccc(F)cc1 [Compound 20, N-(4-fluorophenyl)-N-methyl-2-(2-oxo-1,2-dihydropyridin-3-yl)-3-phenyl-1H-indole-5-carboxamide]	80 to 100	80 to 100	80 to 100	80 to 100	80 to 100
COc1cc2c(cc1OC)CN(C(=O)c1ccc3[nH]c(-c4ccc[nH]c4=O)c(-c4ccccc4)c3c1)CC2 [Compound 21, 3-{5-[(6,7-dimethoxy-3,4-dihydroisoquinolin-2(1H)-yl)carbonyl]-3-phenyl-1H-indol-2-yl}pyridin-2(1H)-one]	< 50		50 to 79	80 to 100	80 to 100
O=C(c1ccc2[nH]c(-c3ccc[nH]c3=O)c(-c3ccc(-c4ccccc4)cc3)c2c1)N1CCN(Cc2ccccn2)CC1 [Compound 41, 3-(3-biphenyl-4-yl-5-{[4-(pyridin-2-ylmethyl)piperazin-1-yl]carbonyl}-1H-indol-2-yl)pyridin-2(1H)-one]	50 to 79	50 to 79	80 to 100	80 to 100	80 to 100
O=C(NCc1ccc(F)cc1F)c1ccc2[nH]c(-c3ccc[nH]c3=O)c(-c3ccc(-c4ccccc4)cc3)c2c1 [Compound 34, 3-biphenyl-4-yl-N-(2,4-difluorobenzyl)-2-(2-oxo-1,2-dihydropyridin-3-yl)-1H-indole-5-carboxamide]		50 to 79	50 to 79	50 to 79	80 to 100
CCOC(=O)N1CCN(C(=O)c2ccc3[nH]c(-c4ccc[nH]c4=O)c(-c4ccccc4)c3c2)CC1 [Compound 24, ethyl 4-{[2-(2-oxo-1,2-dihydropyridin-3-yl)-3-phenyl-1H-indol-5-yl]carbonyl}piperazine-1-carboxylate]	80 to 100		50 to 79	50 to 79	80 to 100
O=C(c1ccc2[nH]c(-c3ccc[nH]c3=O)c(-c3ccccc3)c2c1)N1CCN(c2cnccn2)CC1 [Compound 25, 3-{3-phenyl-5-[(4-pyrazin-2-ylpiperazin-1-yl)carbonyl]-1H-indol-2-yl}pyridin-2(1H)-one]	80 to 100		50 to 79	50 to 79	80 to 100

Now from value to compound, other results behind:

inhibition at 30 µM (IGF-1R) [%]	SMILES	inhibition at 10 µM (MDA-MB-231) [%]	inhibition at 10 µM (DLD-1) [%]	inhibition at 10 µM (NCI-H1299) [%]	inhibition at 10 µM (KATO III) [%]
80 to 100	COc1ccc(-c2c(-c3ccc[nH]c3=O)[nH]c3ccc(C(=O)NCCCN4CCOCC4)cc23)cc1OC [Compound 73, 3-(3,4-dimethoxyphenyl)-N-(3-morpholin-4-ylpropyl)-2-(2-oxo-1,2-dihydropyridin-3-yl)-1H-indole-5-carboxamide]	< 50	< 50	< 50	< 50
80 to 100	O=C(NCCCN1CCOCC1)c1ccc2[nH]c(-c3ccc[nH]c3=O)c(-c3ccc4ncccc4c3)c2c1 [Compound 83, N-(3-morpholin-4-ylpropyl)-2-(2-oxo-1,2-dihydropyridin-3-yl)-3-quinolin-6-yl-1H-indole-5-carboxamide]	80 to 100	80 to 100	80 to 100	80 to 100
80 to 100	O=C(c1ccc2[nH]c(-c3ccc[nH]c3=O)c(-c3ccccc3)c2c1)N1CCN(c2ccccc2F)CC1 [Compound 14, 3-(5-{[4-(2-fluorophenyl)piperazin-1-yl]carbonyl) -3-phenyl-1H-indol-2-yl)pyridin-2(1H)-one]		50 to 79	50 to 79	80 to 100
